This is an account of results in patent US5006511A, “Di- or tripeptide renin inhibitors containing lactam conformational restriction in achpa” (Merck & Co., Inc., priority 1988, dated 1991).

Where a SMILES comes first, the peptide text is derived from it. [ ]: non-standard residue; d: D form. The star is where a group is joined. Sta = CC(C)C[C@H](N)[C@@H](O)CC(=O)O; Isovaleryl = CC(C)CC(=O)*

In one assay the target is T1, human plasma renin (Homo sapiens, UniProt P00797).
T1 construct: from tissue; host or cells: human plasma
T1 sequence (P00797 67-406): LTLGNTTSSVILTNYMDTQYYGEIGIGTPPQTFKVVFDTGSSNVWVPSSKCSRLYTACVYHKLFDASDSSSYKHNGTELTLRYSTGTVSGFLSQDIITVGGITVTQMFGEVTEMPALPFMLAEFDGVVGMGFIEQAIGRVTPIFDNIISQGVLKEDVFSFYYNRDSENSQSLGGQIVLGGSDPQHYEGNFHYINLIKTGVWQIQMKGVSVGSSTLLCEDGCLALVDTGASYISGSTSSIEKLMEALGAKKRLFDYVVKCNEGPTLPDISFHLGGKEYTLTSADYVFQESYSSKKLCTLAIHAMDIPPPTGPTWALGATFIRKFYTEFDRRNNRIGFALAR
In words: In vitro inhibition of human plasma renin (Boger et al., J. Med. Chem. 1985, 28, 1779). It counts as biochemical. Conditions: human plasma renin assay. As to the method:
In vitro inhibition of human plasma renin was measured as described by Boger, et al., J. Med. Chem. (1985) 28, 1779.
They were analyzed for purity by HPLC (30 minute gradient, 5% CH3 CN--H2 O to 95% CH3 CN--H2 O buffered with 0.1% H3 PO4; C18 reverse phase column), and were analyzed for composition by C, H, and N combustion analysis. IC50 values were measured in vitro using the human plasma renin assay, as described by Boger et al. J. Med. Chem. (1985) 28, 1779.
They were analyzed for purity by HPLC under conditions given above, and were analyzed for composition by C, H, and N combustion analysis. IC50 values were measured as described above.

The next assay concerns hog renin. The following applies: after the injection of hog renin into nephrectomized rats; Gross et al., Science 1972; cited from earlier work.

One may read the IC50 as the concentration that inhibits the measured activity by half. For “Boc-Phe-His-(ACHP)-1-Cyclohexyl-2-Pyrrolidinone [Example 3B]”, on human plasma renin, the IC50 came to 10 nM. On the same count and under the same terms, in the case of “Boc-Phe-His-(ACHP)-5(S)-Ethyl-1-Methyl-2-Pyrrolidinone [Example 3L]” it was 5.3 nM; in that of “Boc-Phe-His-(ACHP)-1-(2-Benzyloxyethyl-2-Pyrrolidinone [Example 3E]”, 24 nM.

On to `CC(C)CC(=O)N[C@H](C(=O)N[C@H](C(=O)N[C@@H](CC(C)C)[C@@H](O)CC(=O)N[C@@H](C)C(=O)N[C@@H](CC(C)C)[C@@H](O)CC(=O)O)C(C)C)C(C)C` [pepstatin] (Isovaleryl-VV[Sta]A[Sta]-OH), for which the “blood pressure in vivo” value in the assay with hog renin is “reduces blood pressure in vivo”. In turn, “Boc-Phe-His-(ACHP)-1-Methyl-5(R)-Vinyl-2-Pyrrolidinone [Example 3G]” showed an IC50 against human plasma renin of 2.5 nM.

“Boc-Phe-His-(ACHP)-5(S)-Benzyloxymethyl-1-Methyl-2-Pyrrolidinone [Example 3C]”: at human plasma renin, the IC50 is 4400 nM. The same measure, in the same setting: next, “Boc-Phe-His-(ACHP)-1-Methyl-5(S)-Vinyl-2-Pyrrolidinone [Example 3F]”: 8 nM; “Boc-Phe-His-(ACHP)-5(S)-Acetoxymethyl)-1-Methyl-2-Pyrrolidinone [Example 3J]”: 157 nM; “Boc-Phe-His-(ACHP)-1-Methyl-2-Pyrrolidinone [Example 3A]”: 9.9 nM. Take “Boc-Phe-His-(ACHP)-5(S)-Methoxymethyl-1-Methyl-2-Pyrrolidinone [Example 3D]”: the IC50 against human plasma renin came out at 71 nM.

Consider “Boc-Phe-His-(ACHP)-5(R)-Ethyl-1-Methyl-2-Pyrrolidinone [Example 3K]”, for which, on human plasma renin, the half-inhibitory concentration (IC50) turned out to be 8.5 nM. On the same count and under the same terms, in the case of “Boc-Phe-His-(ACHP)-5(S)-Hydroxymethyl)-1-Methyl-2-Pyrrolidinone [Example 3I]” it was 14 nM.
